Source: US10717716B2, “1,3,4-oxadiazole derivative compounds as histone deacetylase 6 inhibitor, and the pharmaceutical composition comprising the same” (Chong Kun Dang Pharmaceutical Corp., priority 2015, dated 2020)

Target: T1, human recombinant HDAC6 (Homo sapiens, UniProt Q9UBN7)
T1 construct: purchased Calbiochem 382180
T1 sequence (Q9UBN7 1-1215): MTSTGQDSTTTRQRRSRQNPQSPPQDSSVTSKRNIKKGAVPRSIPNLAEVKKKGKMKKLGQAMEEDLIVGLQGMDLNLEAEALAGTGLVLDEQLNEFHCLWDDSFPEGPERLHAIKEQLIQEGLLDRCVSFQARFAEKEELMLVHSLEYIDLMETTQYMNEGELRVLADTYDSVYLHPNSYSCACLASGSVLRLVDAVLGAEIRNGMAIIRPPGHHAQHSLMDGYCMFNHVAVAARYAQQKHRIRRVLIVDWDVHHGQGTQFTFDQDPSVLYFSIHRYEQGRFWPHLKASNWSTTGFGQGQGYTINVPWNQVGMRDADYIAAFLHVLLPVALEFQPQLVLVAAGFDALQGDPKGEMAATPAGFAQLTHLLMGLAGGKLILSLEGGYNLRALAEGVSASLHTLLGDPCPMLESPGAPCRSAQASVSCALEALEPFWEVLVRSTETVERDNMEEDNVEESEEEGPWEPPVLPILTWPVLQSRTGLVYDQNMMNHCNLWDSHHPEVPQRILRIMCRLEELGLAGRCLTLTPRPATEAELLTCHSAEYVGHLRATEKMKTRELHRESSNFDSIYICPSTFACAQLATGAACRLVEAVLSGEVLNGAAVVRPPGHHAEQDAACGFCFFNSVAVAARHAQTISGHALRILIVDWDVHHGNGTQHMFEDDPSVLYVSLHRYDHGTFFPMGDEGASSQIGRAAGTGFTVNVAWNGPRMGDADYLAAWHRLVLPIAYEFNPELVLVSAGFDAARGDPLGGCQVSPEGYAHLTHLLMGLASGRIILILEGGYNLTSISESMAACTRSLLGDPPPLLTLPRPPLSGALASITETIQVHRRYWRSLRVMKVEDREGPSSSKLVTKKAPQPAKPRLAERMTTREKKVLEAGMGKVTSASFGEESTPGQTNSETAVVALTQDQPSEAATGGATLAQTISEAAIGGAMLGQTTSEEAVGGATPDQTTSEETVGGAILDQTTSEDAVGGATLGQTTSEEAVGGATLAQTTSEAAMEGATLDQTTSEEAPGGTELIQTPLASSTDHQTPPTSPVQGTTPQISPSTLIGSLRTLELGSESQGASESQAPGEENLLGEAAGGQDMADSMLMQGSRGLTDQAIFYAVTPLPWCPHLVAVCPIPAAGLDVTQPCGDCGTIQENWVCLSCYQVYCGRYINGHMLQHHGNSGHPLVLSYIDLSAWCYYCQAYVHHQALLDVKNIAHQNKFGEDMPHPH
Assay: HDAC6 enzyme activity inhibition assay (HDAC Fluorimetric Drug Discovery Kit)
Format: biochemical
Details: for HDAC6 selectivity (fold): HDAC6 over HDAC1; for IC50: human recombinant HDAC6, same protocol as HDAC1, read-out: HDAC6
Protocol: In order to examine the HDAC6 selectivity of the compounds of formula I of the present invention by HDAC1 and HDAC6 enzymatic activity inhibition assays, an experiment was performed using a conventional substance as a control.
HDAC enzyme activity was measured using a HDAC Fluorimetric Drug Discovery Kit (BML-AK511, 516, Enzo Life Science). For the HDAC1 enzyme activity test, human recombinant HDAC1 (BML-SE456) was used as an enzyme source, and Fluor de Lys®-“SIRT1 (BNL-KI177) was used as a substrate. A 5-fold dilution of the compound was seeded into a 96-well plate, and then 0.3 μg of the enzyme and 10 μM of the substrate were added to each well of the plate and allowed to react at 30° C. for 60 minutes. Then, Fluor de Lys®-Developer II (BML-KI176) was added thereto and allowed to react for 30 minutes, after which the fluorescence value (Ex 360, Em 460) was measured using a multi-plate reader (Flexstation 3, Molecular Device). The HDAC6 enzyme was tested using human recombinant HDAC6 (382180) (Calbiochem) according to the same protocol as the HDAC1 enzyme activity test method. Based on the resulting values, each IC5, value was calculated using GraphPad Prism4.0 program.

| HDAC6 selectivity (fold) | IC50 | SMILES |
| --- | --- | --- |
| 500 fold | 0.02 µM | CN1CCN(C(=O)N(Cc2ccc(-c3nnc(C(F)F)o3)cc2F)c2ccccc2)CC1 [Compound 21378, N-(4-(5-(difluoromethyl)-1,3,4-oxadiazol-2-yl)-2-fluorobenzyl)-4-methyl-N-phenylpiperazine-1-carboxamide] |
| 132 fold | 0.076 µM | CN1CCCN(C(=O)N(Cc2ccc(-c3nnc(C(F)(F)F)o3)cc2)c2ccccc2)CC1 [Compound 21379, 4-Methyl-N-phenyl-N-(4-(5-(trifluoromethyl)-1,3,4-oxadiazol-2-yl)benzyl)-1,4-diazepane-1-carboxamide] |
| 61 fold | 0.165 µM | C[C@@H]1CN(C(=O)N(Cc2ccc(-c3nnc(C(F)(F)F)o3)cc2)c2ccccc2)C[C@H](C)O1 [Compound 21380, (2S,6R)-2,6-Dimethyl-N-phenyl-N-(4-(5-(trifluoromethyl)-1,3,4-oxadiazol-2-yl)benzyl) morpholine-4-carboxamide] |
| 76 fold | 0.132 µM | CC(C)(C)N1CCN(C(=O)N(Cc2ccc(-c3nnc(C(F)(F)F)o3)cc2)c2ccccc2)CC1 [Compound 21381, 4-(Tert-butyl)-N-phenyl-N-(4-(5-(trifluoromethyl)-1,3,4-oxadiazol-2-yl)benzyl)piperazine-1-carboxamide] |
| 127 fold | 0.079 µM | CC(C)(C)N1CCN(C(=O)N(Cc2ccc(-c3nnc(C(F)(F)F)o3)cc2F)c2ccccc2)CC1 [Compound 21382, 4-(Tert-butyl)-N-(2-fluoro-4-(5-(trifluoromethyl)-1,3,4-oxadiazol-2-yl)benzyl)-N-phenylpiperazine-1-carboxamide] |
| 200 fold | 0.05 µM | CC(C)(C)N1CCN(C(=O)N(Cc2ccc(-c3nnc(C(F)F)o3)cc2F)c2ccccc2)CC1 [Compound 21383, 4-(Tert-butyl)-N-(4-(5-(difluoromethyl)-1,3,4-oxadiazol-2-yl)-2-fluorobenzyl)-N-phenylpiperazine-1-carboxamide] |
| 127 fold | 0.079 µM | O=C(N1CCN(CCO)CC1)N(Cc1ccc(-c2nnc(C(F)(F)F)o2)cc1)c1ccccc1 [Compound 21384, 4-(2-Hydroxyethyl)-N-phenyl-N-(4-(5-(trifluoromethyl)-1,3,4-oxadiazol-2-yl)benzyl)piperazine-1-carboxamide] |
| 175 fold | 0.057 µM | C[C@@H]1CN(C(=O)N(Cc2ccc(-c3nnc(C(F)(F)F)o3)cc2)c2ccccc2)C[C@H](C)N1 [Compound 21385, (3S,5R)-3,5-Dimethyl-N-phenyl-N-(4-(5-(trifluoromethyl)-1,3,4-oxadiazol-2-yl)benzyl)piperazine-1-carboxamide] |
| 213 fold | 0.047 µM | C[C@@H]1CN(C(=O)N(Cc2ccc(-c3nnc(C(F)(F)F)o3)cc2)c2ccccc2)C[C@H](C)N1C [Compound 21386, (3R,5S)-3,4,5-Trimethyl-N-phenyl-N-(4-(5-(trifluoromethyl)-1,3,4-oxadiazol-2-yl)benzyl)piperazine-1-carboxamide] |
| 41 fold | 0.241 µM | CC(=O)N1[C@H](C)CN(C(=O)N(Cc2ccc(-c3nnc(C(F)(F)F)o3)cc2)c2ccccc2)C[C@@H]1C [Compound 21387, (3R,5S)-4-Acetyl-3,5-dimethyl-N-phenyl-N-(4-(5-(trifluoromethyl)-1,3,4-oxadiazol-2-yl)benzyl)piperazine-1-carboxamide] |
| 42 fold | 0.24 µM | C[C@@H]1CN(C(=O)N(Cc2ccc(-c3nnc(C(F)(F)F)o3)cc2)c2ccccc2)C[C@H](C)N1S(C)(=O)=O [Compound 21388, (3R,5S)-3,5-Dimethyl-4-(methylsulfonyl)-N-phenyl-N-(4-(5-(trifluoromethyl)-1,3,4-oxadiazol-2-yl)benzyl)piperazine-1-carboxamide] |
| 27 fold | 0.366 µM | O=C(N1CCS(=O)(=O)CC1)N(Cc1ccc(-c2nnc(C(F)(F)F)o2)cc1)c1cccc(C(F)(F)F)c1 [Compound 21391, N-(4-(5-(trifluoromethyl)-1,3,4-oxadiazol-2-yl)benzyl)-N-(3-(trifluoromethyl)phenyl)thiomorpholine-4-carboxamide 1,1-dioxide] |
| 65 fold | 0.153 µM | O=C(N1CCS(=O)(=O)CC1)N(Cc1ccc(-c2nnc(C(F)(F)F)o2)cc1)c1cccc(F)c1 [Compound 21392, N-(3-fluorophenyl)-N-(4-(5-(trifluoromethyl)-1,3,4-oxadiazol-2-yl)benzyl)thiomorpholine-4-carboxamide 1,1-dioxide] |
| 56 fold | 0.177 µM | O=C(N1CCS(=O)(=O)CC1)N(Cc1ccc(-c2nnc(C(F)(F)F)o2)cc1)c1ccc(Cl)cc1 [Compound 21394, N-(4-chlorophenyl)-N-(4-(5-(trifluoromethyl)-1,3,4-oxadiazol-2-yl)benzyl)thiomorpholine-4-carboxamide 1,1-dioxide] |
| 137 fold | 0.073 µM | O=C(N1CCS(=O)(=O)CC1)N(Cc1ccc(-c2nnc(C(F)(F)F)o2)cc1)c1cccc(Cl)c1 [Compound 21395, N-(3-chlorophenyl)-N-(4-(5-(trifluoromethyl)-1,3,4-oxadiazol-2-yl)benzyl)thiomorpholine-4-carboxamide 1,1-dioxide] |
| 34 fold | 0.292 µM | CC(C)(O)CN1CCN(C(=O)N(Cc2ccc(-c3nnc(C(F)(F)F)o3)cc2)c2ccccc2)CC1 [Compound 21396, 4-(2-hydroxy-2-methylpropyl)-N-phenyl-N-(4-(5-(trifluoromethyl)-1,3,4-oxadiazol-2-yl)benzyl)piperazine-1-carboxamide] |
| 11 fold | 0.882 µM | CC(C)N(Cc1ccc(-c2nnc(C(F)(F)F)o2)cc1)C(=O)N1CCS(=O)(=O)CC1 [Compound 21397, N-isopropyl-N-(4-(5-(trifluoromethyl)-1,3,4-oxadiazol-2-yl)benzyl)thiomorpholine-4-carboxamide 1,1-dioxide] |
| 12 fold | 0.849 µM | CN(Cc1ccc(-c2nnc(C(F)(F)F)o2)cc1)C(=O)N1CCOCC1 [Compound 21398, N-methyl-N-(4-(5-(trifluoromethyl)-1,3,4-oxadiazol-2-yl)benzyl)morpholine-4-carboxamide] |
| 13 fold | 0.78 µM | CCN(Cc1ccc(-c2nnc(C(F)(F)F)o2)cc1)C(=O)N1CCOCC1 [Compound 21399, N-ethyl-N-(4-(5-(trifluoromethyl)-1,3,4-oxadiazol-2-yl)benzyl)morpholine-4-carboxamide] |
| 17 fold | 0.582 µM | CCCN(Cc1ccc(-c2nnc(C(F)(F)F)o2)cc1)C(=O)N1CCOCC1 [Compound 21400, N-propyl-N-(4-(5-(trifluoromethyl)-1,3,4-oxadiazol-2-yl)benzyl)morpholine-4-carboxamide] |
| 20 fold | 0.497 µM | CCCCN(Cc1ccc(-c2nnc(C(F)(F)F)o2)cc1)C(=O)N1CCOCC1 [Compound 21401, N-butyl-N-(4-(5-(trifluoromethyl)-1,3,4-oxadiazol-2-yl)benzyl)morpholine-4-carboxamide] |
| 45 fold | 0.222 µM | CCCN(C)C(=O)N(Cc1ccc(-c2nnc(C(F)(F)F)o2)cc1)c1ccccc1 [Compound 21402, 1-Methyl-3-phenyl-1-propyl-3-(4-(5-(trifluoromethyl)-1,3,4-oxadiazol-2-yl)benzyl)urea] |
